Assay results from BindingDB's records for doi:10.1021/acs.jmedchem.8b00705 (Zhejiang University, 2018).
pEC50: −log10 of the molar value.

Test: Inhibition of alpha-crystallin B R120G mutant (unknown origin)-induced intracellular protein aggregation expressed in human HeLa cells or HLE-B3 cells incubated for 6 to 8 hrs by fluorescence microscopy relative to untreated control

Structure (SMILES)	pEC50
C[C@H](CCCC(C)(C)O)[C@H]1CC[C@H]2[C@@H]3CC=C4C[C@@H](O)CC[C@]4(C)[C@H]3CC[C@]12C [(1S,2R,5S,10S,11S,14R,15R)-14-[(2R)-6-hydroxy-6-methylheptan-2-yl]-2,15-dimethyltetracyclo[8.7.0.0^{2,7}.0^{11,15}]heptadec-7-en-5-ol]	6.49
C[C@H](CCCC(C)(C)O)[C@H]1CC[C@@]2(C)C3=C(CC[C@]12C)[C@@]1(C)C[C@@H](F)[C@@H](O)C(C)(C)[C@@H]1CC3	7.59
C[C@H](CCCC(C)(C)O)[C@H]1CC[C@@]2(C)C3=C(CC[C@]12C)[C@@]1(C)C[C@@H](F)[C@H](O)C(C)(C)[C@@H]1CC3	7.74
CC(C)=CCC[C@@H](C)[C@H]1CC[C@@]2(C)C3=C(CC[C@]12C)[C@@]1(C)CC[C@H](O)C(C)(C)[C@@H]1CC3 [LANOSTEROL]	5.85
C[C@H](CCCC(C)(C)O)[C@H]1CC[C@@]2(C)C3=CC[C@H]4C(C)(C)[C@@H](O)CC[C@]4(C)C3=CC[C@]12C	7.19
C[C@H](CCCC(C)(C)O)[C@H]1CC[C@@]2(C)C3=C(CC[C@]12C)[C@@]1(C)CCC(=O)C(C)(C)[C@@H]1CC3	6.97
C[C@H](CCCC(C)(C)O)[C@H]1CC[C@@]2(C)C3=C(CC[C@]12C)[C@@]1(C)CC[C@H](O)C(C)(C)[C@@H]1CC3	7.24
